{
  "source": "patent US20190275035A1",
  "about": "“WNT ANTAGONISTS AND THEIR USE IN METHODS FOR TREATING MYOCARDIAL INFARCTION” (RUPRECHT-KARLS-UNIVERSITÄT HEIDELBERG, priority 2016, published 2019)",
  "system": "non-canonical WNT signaling in monocytes/macrophages",
  "assay": "PBMC-derived macrophages stimulated with supernatant of hypoxic AdWIF1-transfected cardiomyocytes",
  "type": "cell-based, rat",
  "method": "Neonatal rat ventricular cardiomyocytes (NRVCMs) were isolated as previously described (Hagenmueller et al. 2010). After plating, NRVCMs were allowed to adhere overnight. Cardiomyocytes were cultured under hypoxic conditions (1.5% O2) for either four or 24 hours. Supernatant, RNA and proteins were harvested.\nPremade WIF1 and control adenovirus was purchased from Applied Biological Materials Inc. (Richmond, Canada). Adenovirus was amplified according to the manufacturer's instructions. Cardiomyocytes were transfected according to manufacturer's instructions. WIF1 overexpression was allowed to establish for 48 hours. Transfected cardiomyocytes were than cultured under hypoxic conditions as described above (see 1.9).\nAdult rats were euthanized using a high dose of pentobarbital. Blood was collected by cardiac puncture into EDTA-coated sample tubes. Mononuclear cells were separated using Histopaque 1083 (Sigma-Aldrich Chemie GmbH, Taufkirchen, Germany) according to manufacturer's instructions. Monocytes/macrophages were allowed to adhere to the cell culture dish for two hours. Non-adherent mononuclear cells were discarded. Macrophages were stimulated with supernatant of hypoxic cardiomyocytes for four hours.\nProtein lysates of primary cells and heart tissue were prepared using RIPA buffer supplemented with phosphatase/proteinase inhibitors (Cell Signaling Technology, Danvers, USA). Protein concentrations were measured using BCA assay (ThermoFisher Scientific, Waltham, USA). Equal amounts of protein were separated onto four 15% SDS-PAGE gradient gels (Bio-Rad Laboratories GmbH, München, Germany) and transferred to PVDF membranes (Merck Chemicals GmbH, Darmstadt, Germany). The following primary and HPR-conjugated secondary antibodies were used: monoclonal mouse anti-Active-β-Catenin (anti ABC), clone 8E7 (Merck Millipore, Darmstadt, Germany); monoclonal rabbit anti-JNK1+JNK2+JNK3 [EP1597Y] […] Protein expression was analyzed using ImageJ. Protein bands were normalized to GAPDH (respectively actin) loading control for quantification. […]",
  "key": {"[1]": {"details": "supernatant of WIF1-overexpressing cardiomyocytes vs control cells, FIG. 6B"}},
  "data": [
    {"substance": "WIF1: cardiomyocyte-derived WIF1 in supernatant of hypoxic cardiomyocytes transfected with WIF1 adenovirus (AdWIF1)", "values": [
      {"measurement": "transcription level of pro-inflammatory cytokine IL1β", "setting": "[1]", "result": "reduced"},
      {"measurement": "transcription level of pro-inflammatory cytokine IL6", "setting": "[1]", "result": "reduced"},
      {"measurement": "JNK phosphorylation in isolated monocytes/macrophages", "setting": "supernatant of hypoxic WIF1-overexpressing cardiomyocytes vs control supernatant, FIG. 6A", "result": "significantly reduced"}
    ]}
  ]
}
